Entries after “also recorded” stand apart in the source; their conditions may differ.
What was measured:
B. licheniformis D-GPase [1] = biological target: T1, B. licheniformis D-GPase (Bacillus licheniformis, UniProt Q65CZ1); type: biochemical; conditions: for Relative activity: chloride of the cation added at 25 mM
T1 construct: about 25 kDa by gel filtration
T1 sequence (Q65CZ1 1-216): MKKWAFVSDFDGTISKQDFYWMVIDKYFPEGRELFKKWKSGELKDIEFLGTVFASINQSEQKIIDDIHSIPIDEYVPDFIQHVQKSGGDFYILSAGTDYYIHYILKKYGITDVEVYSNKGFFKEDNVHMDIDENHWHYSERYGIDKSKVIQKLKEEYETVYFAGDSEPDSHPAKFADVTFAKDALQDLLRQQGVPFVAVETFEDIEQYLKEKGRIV
Protocol: (§1) GPase activity was measured by combining cell extract and the appropriate stereoisomer(s) (DL or L) of GP, incubating the mixture, terminating the reaction with acid, and determining the glycerol content by high-performance liquid chromatography (HPLC) analysis. Assay mixtures consisted of, in a total of 500 μl:25 mM MgCl2; 25-50 mM PIPES [piperazine-N,N'-bis(2-ethanesulfonic acid)], pH 7.1; 25-100 mM substrate; and the required volume of cell extract. Incubations were carried out at 37° C. for 30-150 min in microcentrifuge tubes, then 72 μl of 20% trichloroacetic acid (TCA) was added (2.5% final) to each tube to stop the reaction. The samples were spun in a microcentrifuge to remove any precipitate, and the supernatants were filtered through Supor-200 0.2 μm membrane filters (Gelman Sciences, Ann Arbor, Mich.) and analyzed for glycerol by HPLC. Assays for dephosphorylation of other compounds were also analyzed by HPLC (for the dephosphorylated compound) and carried out in the same way as the assays with GP as substrate. Assays for p-nitrophenyl phosphate (PNPP) hydrolysis were the same as with GP as substrate but were carried out with 1.5 mM PNPP in microtiter plates, and absorbance at 420 nm was used to measure the extent of hydrolysis of PNPP. Calf intestinal alkaline phosphatase was used as a standard to ensure that PNPP could be hydrolyzed under the conditions of the assay.
L-GPases reported in the literature require divalent magnesium. Therefore, the inventors tested the effects of addition of the chlorides of three divalent cations: magnesium, manganese, and calcium (25 mM each).

[S. cerevisiae] α-GPase = Gancedo et al. 1968; cited from earlier work
B. licheniformis D-GPase [2] = biological target: T1, B. licheniformis D-GPase; test: Effect of ADP and inorganic phosphate on D-GPase activity; type: biochemical
Protocol: GPase activity was measured by combining cell extract and the appropriate stereoisomer(s) (DL or L) of GP, incubating the mixture, terminating the reaction with acid, and determining the glycerol content by high-performance liquid chromatography (HPLC) analysis. Assay mixtures consisted of, in a total of 500 μl:25 mM MgCl2 ; 25-50 mM PIPES [piperazine-N,N'-bis(2-ethanesulfonic acid)], pH 7.1; 25-100 mM substrate; and the required volume of cell extract. Incubations were carried out at 37° C. for 30-150 min in microcentrifuge tubes, then 72 μl of 20% trichloroacetic acid (TCA) was added (2.5% final) to each tube to stop the reaction. The samples were spun in a microcentrifuge to remove any precipitate, and the supernatants were filtered through Supor-200 0.2 μm membrane filters (Gelman Sciences, Ann Arbor, Mich.) and analyzed for glycerol by HPLC. Assays for dephosphorylation of other compounds were also analyzed by HPLC (for the dephosphorylated compound) and carried out in the same way as the assays with GP as substrate. Assays for p-nitrophenyl phosphate (PNPP) hydrolysis were the same as with GP as substrate but were carried out with 1.5 mM PNPP in microtiter plates, and absorbance at 420 nm was used to measure the extent of hydrolysis of PNPP. Calf intestinal alkaline phosphatase was used as a standard to ensure that PNPP could be hydrolyzed under the conditions of the assay.
Assays that were analyzed for inorganic phosphate instead of glycerol were carried out using the procedure of Marsh, Biochim. […] Blanks were identical assays except without substrate.

B. licheniformis D-GPase [3] = biological target: T1, B. licheniformis D-GPase; test: GPase activity assay, substrate specificity (HPLC of glycerol or dephosphorylated compound); type: biochemical; conditions: PNPP at 1.5 mM read at 420 nm
Protocol: as §1
Glycerol in fermentation broths and assay mixtures was measured by HPLC. The mobile phase was 0.01N H2 SO4, run at a flow rate of 0.6 ml/min through an Aminex HPX-87H organic acids column (Bio-Rad, Hercules, Calif.), which was maintained at 65° C. Samples were injected by a model AS-100 autosampler, and chromatograms were printed by a model 3392A integrator; the detector was a model 1770 differential refractometer (all from Bio-Rad).
Upon the finding that a GPase was present in B. licheniformis extracts, the inventors sought to determine which GP isomers are dephosphorylated by the enzyme and whether some other common phosphorylated metabolites can also be accepted as substrates. Because the initial assays were conducted with DL-GP, which also contained a small amount of β-GP, the specificity of the enzyme was unclear. HPLC chromatograms of reactions were run with crude cell extract and either DL-GP, L-GP, or β-GP. […] The low activity with pure β-GP rules out the possibility that the activity seen in assays with DL-GP is due to the presence of β-GP as an impurity in the DL-GP preparation.

β-galactosidase = conditions: read-out: Km of β-galactosidase for lactose; cited from earlier work
carbonic anhydrase = conditions: read-out: Km of carbonic anhydrase for carbon dioxide; cited from earlier work
threonine deaminase = conditions: cited from earlier work

[Mg+2] [Mg^2+]
Relative activity (B. licheniformis D-GPase [1]): 1.00

O=P(O)(O)OC[C@@H](O)CO [D-GP, D-α-glycerophosphate]
efficiency of α-GPase on D-GP relative to that on L-GP ([S. cerevisiae] α-GPase): 1/30

O=P(O)(O)O [inorganic phosphate]
D-GPase activity retained (B. licheniformis D-GPase [2]; in the presence of 25 mM inorganic phosphate, in vitro hydrolysis of D-GP): 75%
inhibition of D-GPase activity (B. licheniformis D-GPase [2]; inorganic phosphate present in assays of B. licheniformis extracts): did not acutely inhibit

O=P(O)(O)OC[C@H](O)CO [L-α-glycerophosphate]
accepted as substrate / hydrolysis by D-GPase (B. licheniformis D-GPase [3]): does not accept

O=P(O)(O)OC(CO)CO [β-glycerophosphate]
accepted as substrate / hydrolysis by D-GPase (B. licheniformis D-GPase [3]): does not accept

[Ca+2] [Ca^2+]
inhibition of D-GPase activity by the cation (B. licheniformis D-GPase [1]; 25 mM chloride): does not inhibit D-GPase activity
Relative activity (B. licheniformis D-GPase [1]): 0.08

OC[C@H]1O[C@@H](O[C@H]2[C@H](O)[C@@H](O)C(O)O[C@@H]2CO)[C@H](O)[C@@H](O)[C@H]1O (some centres unmarked) [lactose]
Km (β-galactosidase): ~4 mM

O=C(O)[C@H](O)COP(=O)(O)O [D-3-phosphoglyceric acid]
accepted as substrate / hydrolysis by D-GPase (B. licheniformis D-GPase [3]): little or no hydrolysis; also recorded: does not accept

O=C(CO)COP(=O)(O)O [dihydroxyacetone phosphate]
accepted as substrate / hydrolysis by D-GPase (B. licheniformis D-GPase [3]; phosphate): little or no hydrolysis; also recorded: does not accept

O=P(O)(O)OC[C@H]1OC(O)[C@H](O)[C@@H](O)[C@@H]1O (some centres unmarked) [glucose-6-phosphate]
accepted as substrate / hydrolysis by D-GPase (B. licheniformis D-GPase [3]): little or no hydrolysis; also recorded: does not accept

O=C=O [carbon dioxide]
Km (carbonic anhydrase): ~8 mM

Nc1ncnc2c1ncn2[C@@H]1O[C@H](COP(=O)(O)OP(=O)(O)O)[C@@H](O)[C@H]1O [ADP]
effect on specificity and level of D-GPase activity (B. licheniformis D-GPase [2]; 9 mM ADP added to the assays): neither the specificity nor the level of activity of D-GPase was affected

D-glyceraldehyde phosphate
accepted as substrate / hydrolysis by D-GPase (B. licheniformis D-GPase [3]; phosphate): little or no hydrolysis; also recorded: does not accept

[Mn+2] [Mn^2+]
Relative activity (B. licheniformis D-GPase [1]): 0.53

C[C@@H](O)[C@H](N)C(=O)O [threonine]
Km (threonine deaminase): ~5 mM

From US5733749A, “Glycerol phosphatase with stereo-specific activity” (priority 1995, dated 1998)
